This note sets out measurements from ChEMBL document CHEMBL5104193, “Hypoxia-Activated Prodrugs with Dual COX-2/CA Inhibitory Effects on Attenuating Cardiac Inflammation under Hypoxia” (J Med Chem, 2022).

Active and inactive are the calls of the source. No cut-off for these calls is given here.

A short description of series [1]: Toxicity in Wistar rat assessed as change in BUN level in presence of 2-(4-(5-oxo-5-((5-sulfamoyl-1,3,4-thiadiazol-2-yl)amino)pentyl)-1H-1,2,3-triazol-1-yl)acetic acid. Particulars: in vivo.
Series [2] relates to H9c2. Kind of series: Protection against LPS/hypoxia induced cell injury in rat H9c2 cells assessed as recovery of cell viability at 10 uM by CCK-8 assay. It counts as functional, cell-based. On the technique in general: Tetrazolium assays rely on reduction of a dye to a coloured formazan, in cell work by metabolically active cells.
For series [3], the system named is H9c2. The series is described as follows: Anti-inflammatory activity in LPS/hypoxia induced rat H9c2 cells assessed as reduction of IL-6 protein expression at 10 uM by Western blot analysis. It counts as functional, cell-based. Background: A western blot detects proteins with antibodies after separation by electrophoresis.
The subject of series [4] is H9c2. Kind of series: Protection against LPS/hypoxia induced apoptosis in rat H9c2 cells assessed as reduction in necrotic cells at 10 umol/L incubated for 4 hrs under hypoxia condition by AnnexinV-FITC/propidium iodide staining based flow cytometry analysis (reference value: 31.02%). It counts as functional. Set-up: scale not given: the % may be the effect or the level left. The note with it: dose 10 µmol/L, at 10 µM. For orientation: A flow cytometer gives signals particle by particle.

The subject of series [5] is H9c2. The series is described as follows: Reversal of ATP level in LPS/hypoxia induced rat H9c2 cell in presence of 2-(4-(5-oxo-5-((5-sulfamoyl-1,3,4-thiadiazol-2-yl)amino)pentyl)-1H-1,2,3-triazol-1-yl)acetic acid and Na2WO4 by multimode plate reader analysis. The series is classed as functional, cell-based.
For series [6], the system named is Rattus norvegicus. The series is described as follows: Antiinflammatory activity in LPS/talc powder induced pericarditic Wistar rat assessed as increase in cTNI level in serum at 20 mg/kg, ip pretreated for 2 hrs followed by LPS/tal powder stimulation measured after 48 hrs in presence of 2-(4-(5-oxo-5-((5-sulfamoyl-1,3,4-thiadiazol-2-yl)amino)pentyl)-1H-1,2,3-triazol-1-yl)acetic acid (reference value: 0.167+/-0.025 ng/ml). It counts as functional. Particulars: time 50 hrs.

Series [7] concerns H9c2. The series is described as follows: Anti-inflammatory activity in LPS/hypoxia induced rat H9c2 cells assessed as reduction of IL-1beta protein expression at 10 uM in presence of 2-(4-(5-oxo-5-((5-sulfamoyl-1,3,4-thiadiazol-2-yl)amino)pentyl)-1H-1,2,3-triazol-1-yl)acetic acid by Western blot analysis. It counts as functional, cell-based.
The test system of series [8] is H9c2. The series is described as follows: Anti-inflammatory activity in rat H9c2 cells assessed as inhibition of endogenous IL-6 protein expression in presence of 2-(4-(5-oxo-5-((5-sulfamoyl-1,3,4-thiadiazol-2-yl)amino)pentyl)-1H-1,2,3-triazol-1-yl)acetic acid by DAPI staining based immunofluorescence analysis. It counts as functional, cell-based.
The subject of series [9] is Rattus norvegicus. Kind of series: Antiinflammatory activity against LPS/talc powder induced pericarditic Wistar rat assessed as reduction in torsion T wave inversion at 20 mg/kg, ip pretreated for 2 hrs followed by LPS/tal powder stimulation measured after 48 hrs in presence of 2-(4-(5-oxo-5-((5-sulfamoyl-1,3,4-thiadiazol-2-yl)amino)pentyl)-1H-1,2,3-triazol-1-yl)acetic acid by ECG analysis. The series is classed as functional, organism-based. Particulars: time 50.0 hrs.

Series [10] has as its system H9c2. The series is described as follows: Antiinflammatory activity in LPS/hypoxia induced CA9 knockdown rat H9c2 cells assessed as decrease in TNF-alpha protein level at 10 uM by Western blot analysis. It counts as functional, cell-based.
Series [11] has as its system H9c2. The series is described as follows: Anti-inflammatory activity in LPS/hypoxia induced rat H9c2 cells assessed as reduction of TNF-alpha protein expression at 10 uM by Western blot analysis. The series is classed as functional, cell-based.
The subject of series [12] is Rattus norvegicus. Kind of series: Antiinflammatory activity against LPS/talc powder induced pericarditic Wistar rat assessed as elimination of pericardial effusion at 20 mg/kg, ip pretreated for 2 hrs followed by LPS/tal powder stimulation measured after 48 hrs in presence of 2-(4-(5-oxo-5-((5-sulfamoyl-1,3,4-thiadiazol-2-yl)amino)pentyl)-1H-1,2,3-triazol-1-yl)acetic acid. The series is classed as functional, organism-based. The note with it: time 50.0 hrs.

For series [13], the system named is H9c2. The series is described as follows: Anti-inflammatory activity in LPS/hypoxia induced rat H9c2 cells assessed as increase in VEGF expression at 10 uM in presence of 2-(4-(5-oxo-5-((5-sulfamoyl-1,3,4-thiadiazol-2-yl)amino)pentyl)-1H-1,2,3-triazol-1-yl)acetic acid by Western blot analysis. It counts as functional, cell-based.

`COc1ccc2c(c1)c(CC(=O)O)c(C)n2C(=O)c1ccc(Cl)cc1` [INDOMETHACIN]: the Activity result in series [1] was “Toxic”; in the series on H9c2 [4], 23.96%; with Rattus norvegicus [6], 0.121 ng/mL. For the same compound, the result in the series with H9c2 [2], with H9c2 [3], in the series with H9c2 [5], with H9c2 [7], with H9c2 [8] and with Rattus norvegicus [9] was Active. In addition, the result in the series on H9c2 [10], with H9c2 [11], in the series on Rattus norvegicus [12] and with H9c2 [13] was Active.
